Patent US20240358705A1, “COMPOSITIONS AND METHODS FOR TREATMENT OF CANCER” (Board of Supervisors of Louisiana State University and …, priority 2021, published 2024)
“Also recorded” adds a separate entry of the source. {AltR1} = IDT Alt-R proprietary 5' end modification; {AltR2} = IDT Alt-R proprietary 3' end modification

Experiments:
[1] = system: human polymorphonuclear leukocytes and macrophages; conditions: cited from earlier work
[2] = phase II study; cited from earlier work
[3] = system: macrophages, fibroblasts, myofibroblasts, and epithelial cells; conditions: cited from earlier work
[4] = cited from earlier work
[5] = model of diet-induced obesity; cited from earlier work
CD8 OT-I T cells = experiment: In vivo vaccination antigen titration; parameters: species or system mouse; OT-I proliferation response, lymph node: dose or concentration left out as unconfirmed
Experimental: C57BL/6N mice were first administered 200 μg cyclophosphamide dissolved in PBS by intraperitoneal injection to induce minor lymphodepletion. 48 hours after lymphodepletion, mice were intravenously adoptively transferred 2×10^6 CFSE labeled CD8 OT-I T cells. Five hours later, mice were vaccinated by 100 μl subcutaneous injection with reducing doses of […] (SEQ ID NO: 1) (Bachem #4033142.0001) in incomplete Freund's adjuvant (IFA) (Thermo #77145). Study ended 96 hours post-vaccination and lymph node tissue was isolated for analysis. Single-cell suspensions of lymph node were stained following the immune profiling by flow cytometry method. Vaccine effectiveness was determined by the percent proliferation of adoptively transferred cells. The sub-optimal vaccine dose was then selected as the amount of antigen that elicited a 50% response.

pmel-I CD8 T cells = experiment: Cytotoxicity of CRISPR-Cas9 GPR84 knockout pmel-I CD8 T cells; assay type: cell-based, mouse
Experimental: CRISPR-Cas9 GPR84 pmel-I T cells were prepared following the CRISPR-Cas9 method. Non-target EL4 cells (CFSE low—0.1 μM) and target EL4gp100 cells (CFSE high—[…]) were prepared. EL4gp100 CFSE high cells were prepared by pulsing EL4 with […] gp100 (Anaspec #AS62589) and incubating for 30 minutes at 37° C., 5% C02. Cells were subsequently washed, pelleted, resuspended at 1×10^6 cells/ml, and mixed at 1:1 ratio. 1×10^5 of the mixed cells were plated into a 96-well round-bottom plate. In technical duplicate or triplicate GPR84 knockout or no target control CD8 […] T cells were added to wells to create an effector to target ratio of 0.5:1, 0.25:1, and 0.12:1 and incubated for 24 hours at 37° C., 5% C02. Cells were then harvested, stained with anti-CD8 to remove the T cell population and the percent specific lysis was captured by flow cytometry.
Isolated pmel-I splenocytes were plated at a density of 2.5×10^6 in 1 ml of cRPMI-1640 containing 300 ng/ml anti-mouse CD3 (Biolegend #100340, clone 145-2C11), 500 IU/ml IL-2, 5 ng/ml IL-7 (PreproTech #217-17), and 100 ng/ml IL-15 (PreproTech #210-15) into a 24-well plate. Cells were incubated at 37° C., 5% CO2 for 48 hours. Cells were then pelleted and suspended to a concentration of 4×10^5 cells/ml in fresh cRPMI-1640 with 500 IU/ml IL-2 and cultured for an additional 24 hours at 37° C., 5% CO2. Before electroporation, T media was prepared consisting of modified cRPMI-1640 (20% FBS, 500 IU/ml IL-2, and no antibiotics). 615 μl of fresh T media was pipetted into 24-well plates. Preparation of CRISPR-Cas9 complexes and electroporation of primary T cells were conducted following the Alt-R CRISPR-Cas9 system using the Neon Transfection System instructions provided by Integrated DNA Technologies (IDT Coralville, IO). The program used for electroporation consisted of 1600V, 10 ms, and three pulses. […] Cells were counted 48 hours after electroporation and cRPMI-1640 supplemented with 500 IU/ml IL-2 was added to adjust the cell density to 4×10^5 cells/ml. […]

## CCCCCCCCNc1cc(=O)[nH]c(=O)[nH]1 [6-OAU]
[1]
  chemotaxis: increase chemotaxis

## CCCCCc1cccc(CC(=O)O)c1 [PBI-4050]
[2]
  HbA1c: can reduce HbAlc
[3]
  fibrotic capacity of cells: reduced fibrotic capacity
  glycemic control: improved glycemic control
[4]; combination therapy with pirfenidone
  forced vital capacity: worsened forced vital capacity
[4]; patients treated with PBI-4050
  inflammatory and fibrotic biomarkers: significant increase in IL-9, IL-7, MIP-Ibeta; also recorded: increase in IL-9, IL-7, MIP-1beta
[4]; single agent and in combination with nintedanib or pirfenidone, phase II
  tolerability: well tolerated
[4]; single agent and in combination with nintedanib
  ability to increase forced vital capacity: unsuccessful

## CCCCCc1cc(CCCCC)cc(CC(=O)O)c1 [PBI-4547]
[5]
  metabolic dysregulation (hyperglycemia and hypertriglyceridemia): improved metabolic dysregulation

## SIINFEKL
CD8 OT-I T cells; 0.07 g SIINFEKL, selected sub-optimal vaccine dose
  OT-I proliferation response, predicted: 50%
CD8 OT-I T cells; first five concentrations of SIINFEKL in IFA, 96 hours
  OT-I proliferation, lymph node: ~100%
CD8 OT-I T cells; in IFA
  OT-I proliferation response, lymph node: below 50%

## crGPR84: CRISPR-Cas9 guide RNA (SEQ ID NO: 2) used to knock out GPR84 in pmel-I CD8 T cells (guide CUCGAGCACUGGACCAAUACGUUUUAGAGCUAUGCU; RNA, 5' {AltR1}, 3' {AltR2}, backbone not given here)
pmel-I CD8 T cells; 0.12:1 effector to target ratio, crNTC 38.6%
  specific lysis of gp100 pulsed EL4 target cells: 52.3%
pmel-I CD8 T cells; 0.25:1 effector to target ratio, no target control 55.9%
  specific lysis of gp100 pulsed EL4 target cells: 72.5%
pmel-I CD8 T cells; 0.5:1 effector to target ratio
  cytotoxicity vs no target control: did not find a significant difference
